Experimental data reported in patent US20230117034A1, “PYRAZOLOTRIAZINES” (Bayer Aktiengesellschaft, priority 2019, published 2023).

What was measured:
[1] = target: T1, CYCLIN K (nuclear staining in CAL-120 cells) (Homo sapiens, UniProt O75909); experiment: CYCLIN K nuclear protein level: immunofluorescence high content analysis (CAL-120); type: cell-based; conditions: 24 h, 50% reduction of nuclear CCNK staining intensity, median, read-out: CYCLIN K degradation IF, DC50-[mol/l] (median)
T1 construct: endogenous in cells; host or cells: CAL-120 human breast cancer cells (DSMZ ACC 459)
T1 sequence (O75909 whole entry): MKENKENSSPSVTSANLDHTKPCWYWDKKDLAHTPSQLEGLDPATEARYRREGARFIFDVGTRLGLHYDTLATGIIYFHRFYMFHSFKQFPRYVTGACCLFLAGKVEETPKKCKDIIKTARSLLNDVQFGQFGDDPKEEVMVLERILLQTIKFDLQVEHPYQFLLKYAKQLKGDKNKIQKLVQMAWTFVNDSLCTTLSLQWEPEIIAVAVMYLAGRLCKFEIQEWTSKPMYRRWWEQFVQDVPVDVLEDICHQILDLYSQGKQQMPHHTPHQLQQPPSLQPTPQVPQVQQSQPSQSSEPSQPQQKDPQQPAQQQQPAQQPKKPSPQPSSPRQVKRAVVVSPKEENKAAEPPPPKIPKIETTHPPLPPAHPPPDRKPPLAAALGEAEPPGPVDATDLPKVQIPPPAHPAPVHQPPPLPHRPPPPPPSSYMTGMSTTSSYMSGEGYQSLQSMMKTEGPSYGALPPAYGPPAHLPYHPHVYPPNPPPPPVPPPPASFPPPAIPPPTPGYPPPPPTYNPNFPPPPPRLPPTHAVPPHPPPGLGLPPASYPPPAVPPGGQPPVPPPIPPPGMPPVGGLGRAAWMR
T1 sequence (Q9NYV4 whole entry partner): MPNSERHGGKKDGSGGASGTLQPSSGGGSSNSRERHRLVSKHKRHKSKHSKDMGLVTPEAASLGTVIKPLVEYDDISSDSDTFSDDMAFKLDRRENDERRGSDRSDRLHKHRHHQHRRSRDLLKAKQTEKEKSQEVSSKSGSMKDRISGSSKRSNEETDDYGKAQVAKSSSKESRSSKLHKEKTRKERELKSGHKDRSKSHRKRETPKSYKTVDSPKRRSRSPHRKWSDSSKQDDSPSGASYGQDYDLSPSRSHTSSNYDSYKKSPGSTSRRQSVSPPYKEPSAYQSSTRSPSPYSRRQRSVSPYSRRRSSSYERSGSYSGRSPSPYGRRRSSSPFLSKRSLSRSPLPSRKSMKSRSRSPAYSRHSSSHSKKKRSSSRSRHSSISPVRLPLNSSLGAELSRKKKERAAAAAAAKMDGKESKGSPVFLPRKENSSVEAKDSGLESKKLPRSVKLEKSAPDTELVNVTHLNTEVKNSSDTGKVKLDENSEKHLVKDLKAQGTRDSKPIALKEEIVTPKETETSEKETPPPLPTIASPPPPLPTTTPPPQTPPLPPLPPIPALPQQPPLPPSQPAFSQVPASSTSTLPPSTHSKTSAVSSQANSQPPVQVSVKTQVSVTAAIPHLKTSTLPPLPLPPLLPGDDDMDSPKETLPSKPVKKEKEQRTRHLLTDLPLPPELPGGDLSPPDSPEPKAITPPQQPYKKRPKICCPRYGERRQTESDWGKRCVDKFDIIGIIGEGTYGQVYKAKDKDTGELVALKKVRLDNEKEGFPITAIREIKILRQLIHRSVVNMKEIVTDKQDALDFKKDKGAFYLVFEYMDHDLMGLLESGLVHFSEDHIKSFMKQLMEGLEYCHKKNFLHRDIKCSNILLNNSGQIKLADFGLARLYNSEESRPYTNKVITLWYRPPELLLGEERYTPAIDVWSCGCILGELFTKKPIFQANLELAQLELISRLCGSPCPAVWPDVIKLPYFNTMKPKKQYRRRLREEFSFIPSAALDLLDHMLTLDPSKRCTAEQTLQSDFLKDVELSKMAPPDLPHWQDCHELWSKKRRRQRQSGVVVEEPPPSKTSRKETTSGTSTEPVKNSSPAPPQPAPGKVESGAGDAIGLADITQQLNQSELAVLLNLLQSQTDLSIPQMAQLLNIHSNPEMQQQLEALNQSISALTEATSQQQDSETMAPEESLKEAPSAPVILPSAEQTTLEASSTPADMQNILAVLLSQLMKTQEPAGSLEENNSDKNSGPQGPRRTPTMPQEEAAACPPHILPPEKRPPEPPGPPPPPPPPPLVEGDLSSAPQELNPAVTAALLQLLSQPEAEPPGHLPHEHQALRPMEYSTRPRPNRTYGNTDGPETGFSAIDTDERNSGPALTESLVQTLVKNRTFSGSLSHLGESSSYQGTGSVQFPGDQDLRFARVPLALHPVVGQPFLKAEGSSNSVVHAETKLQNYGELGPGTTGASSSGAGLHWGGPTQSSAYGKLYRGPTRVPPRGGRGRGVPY
Procedure: 8. CYCLIN K nuclear protein level: immunofluorescence High Content Analysis
CAL-120 human breast cancer cells (DSMZ ACC 459) are seeded in 1536-well microtiter plates (800 cells per well) containing 50 nanoL of compounds in Dose-Response. Control wells received DMSO or Example 4. Plates are then incubated for 24 h at 37° C. in an humidified incubator and fixed with 4% PFA for 10 min. Then immunofluorescence (IF) against CYCLIN K (ThermoFisher Scientific CONK Antibody #PA5-85020, rabbit, 1:200 dilution) is performed using standard IF protocols. Cells are then stained with Hoechst 33342 (Life Technologies, H-1399, 0.1 microg/ml) and imaged on an automated confocal microscopy system (e.g. Perkin Elmer Opera Phenix). Nuclear and cytoplasmic intensity as well as the nuclear/cytoplasmic intensity ratio is determined by automated image analysis using custom generated scripts (MetaXpress). Data is then transferred to Genedata Screener software, normalized to DMSO and control and DC50 values (degrading concentration to achieve 50% reduction of nuclear CCNK staining intensity relative to controls) are reported.

[2] = test system: CAL-120, human breast adenocarcinoma cells; experiment: Proliferation assay CAL-120 (crystal violet, 4 days); type: cell-based; conditions: Homo sapiens, CAL-120, 96 h, CAL-120 cells, median, read-out: Prolif-CAL-120, IC50-[mol/l] (median)
Procedure: Human tumour cells were originally obtained from the American Type Culture Collection (ATCC), or from the Deutsche Sammlung von Mikroorganismen und Zellkulturen (DSMZ, German Collection of Microorganisms and Cell Cultures). Cultivated tumour cells (CAL-120, human breast adenocarcinoma cells, DSMZ ACC-459; MDA-MB-231, human breast cancer cells, ATCC HTB-26) were plated at a density of 4,000 cells/well in a 96-well multititer plate in 200 microL of their respective growth medium supplemented 10% fetal calf serum. After 24 hours, the cells of one plate (zero-point plate) were stained with crystal violet (see below), while the medium of the other plates was supplemented with the test substances in various concentrations (0 micromol/L, as well as in the range of 0.01-10 micromol/L; the final concentration of the solvent dimethyl sulfoxide was adjusted to 0.1%) using a Tecan HP D300 Digital Dispenser. The cells were incubated for 4 days in the presence of test substances. Cell proliferation was determined by staining the cells with crystal violet: the cells were fixed by adding 20 microL/measuring point of an 11% glutaric aldehyde solution for 15 minutes at room temperature. After three washing cycles of the fixed cells with water, the plates were dried at room temperature. The cells were stained by adding 100 microL/measuring point of a 0.1% crystal violet solution (pH 3.0). After three washing cycles of the stained cells with water, the plates were dried at room temperature. The dye was dissolved by adding 100 microL/measuring point of a 10% acetic acid solution. The extinction was determined by photometry at a wavelength of 595 nm. The change of cell number, in percent, was calculated by normalization of the measured values to the extinction values of the zero-point plate (=0%) and the extinction of the untreated (0 μM) cells (=100%). The IC50 values (inhibitory concentration at 50% of maximal effect) were determined by means of a 4 parameter fit.

CDK12/CycK = CDK12/CycK (Homo sapiens, UniProt Q9NYV4); experiment: CDK12/CycK high ATP kinase assay (TR-FRET, 2 mM ATP); type: biochemical; conditions: 2 mM ATP (high ATP); median; read-out: CDK12/CyclinK, 2 mM ATP (high ATP), IC50-[mol/l] (median)
Chain of CDK12/CycK (Q9NYV4 with tags, fused parts or gaps): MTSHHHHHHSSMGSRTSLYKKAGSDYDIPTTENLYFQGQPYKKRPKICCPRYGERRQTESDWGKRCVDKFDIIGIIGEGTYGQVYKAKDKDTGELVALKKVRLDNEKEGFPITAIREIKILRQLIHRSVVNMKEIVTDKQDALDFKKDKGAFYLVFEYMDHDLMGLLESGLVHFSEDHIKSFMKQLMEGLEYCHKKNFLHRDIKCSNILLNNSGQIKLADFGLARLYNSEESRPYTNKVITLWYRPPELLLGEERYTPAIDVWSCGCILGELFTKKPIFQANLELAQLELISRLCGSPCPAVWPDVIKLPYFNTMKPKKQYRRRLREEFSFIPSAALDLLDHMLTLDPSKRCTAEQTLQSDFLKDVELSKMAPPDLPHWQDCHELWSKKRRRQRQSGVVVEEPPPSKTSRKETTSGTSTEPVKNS
Chain of CDK12/CycK (O75909 1-300 partner limits assumed): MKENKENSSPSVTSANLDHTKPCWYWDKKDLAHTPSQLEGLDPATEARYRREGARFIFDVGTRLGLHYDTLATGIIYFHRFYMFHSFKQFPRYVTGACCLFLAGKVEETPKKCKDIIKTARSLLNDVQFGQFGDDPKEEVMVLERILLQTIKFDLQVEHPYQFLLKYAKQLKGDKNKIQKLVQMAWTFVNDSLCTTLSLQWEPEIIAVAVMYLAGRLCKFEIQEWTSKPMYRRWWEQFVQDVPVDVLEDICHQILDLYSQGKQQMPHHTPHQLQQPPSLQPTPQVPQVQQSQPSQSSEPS
Procedure: In the context of the present invention, the term “IC50 CDK12 hATP” refers to the IC50 values obtained according to the assay described in this section (2.2) herein below, i.e. the IC50 values for the inhibition of CDK12 at high (2 mM) ATP.
CDK12/CycK-inhibitory activity of compounds of the present invention at 2 millimol/L adenosine-tri-phosphate (ATP) was quantified employing the TR-FRET (TR-FRET=Time Resolved Fluorescence Energy Transfer) based CDK12/CycK activity inhibition assay as described in the following paragraphs.
A complex of human recombinant CDK12 and human recombinant CycK (both N-terminally His-tagged, expression and purification as described above) was used as enzyme. As substrate for the kinase reaction biotinylated peptide biotin-Ahx-KFELLPTPPLSPSRRSGL (C-terminus in amid form) was used which can be purchased e.g. form the company Biosyntan (Berlin-Buch, Germany).
For the assay 50 nanoL of a 100 fold concentrated solution of the test compound in DMSO was pipetted into either a black low volume 384 well microtiter plate or a black 1536 well microtiter plate (both Greiner Bio-One, Frickenhausen, Germany), 2 microL of a solution of CDK12/CycK in aqueous assay buffer [25 millimol/L HEPES pH 7.5, 20 millimol/L MgCl2, 5 millimol/L β-glycerophosphate, 2 millimol/L EGTA, 1.0 millimol/L dithiothreitol, 0.01% (v/v) Nonidet-P40 (Sigma), 0.01% (w/v) bovine serum albumin] were added and the mixture was incubated for 15 min at 22° C. to allow pre-binding of the test compounds to the enzyme before the start of the kinase reaction. Then the kinase reaction was started by the addition of 3 microL of a solution ATP (3.33 millimol/L=>final conc. in the 5 microL assay volume is 2 millimol/L) and substrate (1.67 micromol/L=>final conc. in the 5 microL assay volume is 1 micromol/L) in assay buffer and the resulting mixture was incubated for a reaction time of 60 min at 22° C. The concentration of CDK12/CycK was adjusted depending of the activity of the enzyme lot and was chosen appropriate to have the assay in the linear range, typical concentrations were about 0.75 nanomol/L. The reaction was stopped by the addition of 3 microL of a solution of TR-FRET detection reagents (125 nanomol/L streptavidine-XL665 [Cisbio Bioassays, Codolet, France] and 0.67 nanomol/L anti-Phospho-c-Myc (Ser 62) (E1J4K)-antibody from Cell Signalling [#13748] and 2 nanomol/L LANCE EU-W1024 labeled anti-rabbit IgG antibody [Perkin-Elmer, product no. 0083]) in an aqueous EDTA-solution (133 millimol/L EDTA, 0.27% (w/v) bovine serum albumin in 66.7 millimol/L HEPES pH 7.5).
The resulting mixture was incubated 1 h at 22° C. to allow the formation of complex between the phosphorylated biotinylated peptide and the detection reagents. Subsequently the amount of phosphorylated substrate was evaluated by measurement of the resonance energy transfer from the Eu-chelate to the streptavidine-XL. Therefore, the fluorescence emissions at 620 nm and 665 nm after excitation at 350 nm was measured in a TR-FRET reader, e.g. a Pherastar FS (BMG Labtechnologies, Offenburg, Germany) or a Viewlux (Perkin-Elmer). The ratio of the emissions at 665 nm and at […] was taken as the measure for the amount of phosphorylated substrate. The data were normalised (enzyme reaction without inhibitor=0% inhibition, all other assay components but no enzyme=100% inhibition).

`COc1ccc2[nH]c(CNc3nc(N4CCOCC4)nc4c(Br)cnn34)nc2c1` [Example 160, 8-bromo-N-[(5-methoxy-1H-benzimidazol-2-yl)methyl]-2-(morpholin-4-yl)pyrazolo[1,5-a][1,3,5]triazin-4-amine] was tested, and the DC50 [1] was 0.743 nM, the IC50 [2] was 6.5 nM and the IC50 (CDK12/CycK) was 1240 nM.

Work on `Brc1cnn2c(NCc3nc4ccccc4[nH]3)nc(N3C[C@H]4C[C@@H]3CO4)nc12` [Example 102, N-[(1H-benzimidazol-2-yl)methyl]-8-bromo-2-[(1R,4R)-2-oxa-5-azabicyclo[2.2.1]heptan-5-yl]pyrazolo[1,5-a][1,3,5]triazin-4-amine] yielded a DC50 [1] of 0.517 nM, an IC50 [2] of 27 nM and an IC50 (CDK12/CycK) of 6920 nM.

`Fc1cc(-c2nnc(CNc3nc(N4CCOCC4)nc4c(Br)cnn34)[nH]2)cc(F)c1F` [Example 100, 8-bromo-2-(morpholin-4-yl)-N-{[5-(3,4,5-trifluorophenyl)-4H-1,2,4-triazol-3-yl]methyl}pyrazolo[1,5-a][1,3,5]triazin-4-amine] gave a DC50 [1] of 7.4 nM, an IC50 [2] of 60.2 nM and an IC50 (CDK12/CycK) of 1240 nM.

Work on `CN1CCN(c2nc(NCc3nc4c(F)cccc4[nH]3)n3ncc(Br)c3n2)CC1` [Example 126, 8-bromo-N-[(4-fluoro-1H-benzimidazol-2-yl)methyl]-2-(4-methylpiperazin-1-yl)pyrazolo[1,5-a][1,3,5]triazin-4-amine] yielded a DC50 [1] of 0.142 nM, an IC50 [2] of 11 nM and an IC50 (CDK12/CycK) of 6830 nM.

Compound `Brc1cnn2c(NCc3nc4ccccc4[nH]3)nc(N3C[C@@H]4C[C@H]3CO4)nc12` [Example 103, N-[(1H-benzimidazol-2-yl)methyl]-8-bromo-2-[(1S,4S)-2-oxa-5-azabicyclo[2.2.1]heptan-5-yl]pyrazolo[1,5-a][1,3,5]triazin-4-amine] has a DC50 [1] of 0.765 nM, an IC50 [2] of 46.5 nM and an IC50 (CDK12/CycK) of 10300 nM.

`CN1CCN(c2nc(NCc3nnc(-c4cccc(F)c4)[nH]3)n3ncc(Br)c3n2)CC1` [Example 136, 8-bromo-N-{[5-(3-fluorophenyl)-4H-1,2,4-triazol-3-yl]methyl}-2-(4-methylpiperazin-1-yl)pyrazolo[1,5-a][1,3,5]triazin-4-amine] showed a DC50 [1] of 0.464 nM, an IC50 [2] of 17.1 nM and an IC50 (CDK12/CycK) of 4120 nM.

`CCN1CCN(c2nc(NCc3nc4ccccc4[nH]3)n3ncc(Br)c3n2)CC1` [Example 137, N-[(1H-benzimidazol-2-yl)methyl]-8-bromo-2-(4-ethylpiperazin-1-yl)pyrazolo[1,5-a][1,3,5]triazin-4-amine] gave a DC50 [1] of 4.68 nM, an IC50 [2] of 110 nM and an IC50 (CDK12/CycK) of 13000 nM.

`COc1ccc2[nH]c(CNc3nc(N4C[C@@H](C)O[C@@H](C)C4)nc4c(Br)cnn34)nc2c1` [Example 124, 8-bromo-2-[(2R, 6S)-2,6-dimethylmorpholin-4-yl]-N-[(5-methoxy-1H-benzimidazol-2-yl)methyl]pyrazolo[1,5-a][1,3,5]triazin-4-amine] gave a DC50 [1] of 0.142 nM, an IC50 [2] of 6.43 nM and an IC50 (CDK12/CycK) of 489 nM.

`C[C@H]1CN(c2nc(NCc3nc4ccccc4[nH]3)n3ncc(Br)c3n2)CCN1C` [Example 132, N-[(1H-benzimidazol-2-yl)methyl]-8-bromo-2-[(3S)-3,4-dimethylpiperazin-1-yl]pyrazolo[1,5-a][1,3,5]triazin-4-amine] gave a DC50 [1] of 2.22 nM, an IC50 [2] of 43.4 nM and an IC50 (CDK12/CycK) of over 19200 nM.

`CC(C)c1cnn2c(NCc3nc4ccccc4[nH]3)nc(N(C)CC(C)(C)O)nc12` [Example 5, 1-{[4-{[(1H-benzimidazol-2-yl)methyl]amino}-8-(propan-2-yl)pyrazolo[1,5-a][1,3,5]triazin-2-yl](methyl)amino}-2-methylpropan-2-ol] was tested, and the DC50 [1] was 1.95 nM and the IC50 (CDK12/CycK) was 5170 nM.

Compound `CC(C)c1cnn2c(NCc3nc4ccccc4[nH]3)nc(N3CCCOCC3)nc12` [Example 8, N-[(1H-benzimidazol-2-yl)methyl]-2-(1,4-oxazepan-4-yl)-8-(propan-2-yl)pyrazolo[1,5-a][1,3,5]triazin-4-amine] has a DC50 [1] of 26.9 nM and an IC50 (CDK12/CycK) of over 19800 nM.

`CC(C)c1cnn2c(NCc3nc4ccccc4[nH]3)nc(NCC(C)(C)O)nc12` [Example 10, 1-{[4-{[(1H-benzimidazol-2-yl)methyl]amino}-8-(propan-2-yl)pyrazolo[1,5-a][1,3,5]triazin-2-yl]amino}-2-methylpropan-2-ol] gave a DC50 [1] of 3.6 nM and an IC50 (CDK12/CycK) of 8750 nM.

For `CC(C)c1cnn2c(NCc3nc4ccccc4[nH]3)nc(N3CCOC[C@@H]3C)nc12` [Example 6, N-[(1H-benzimidazol-2-yl)methyl]-2-[(3S)-3-methylmorpholin-4-yl]-8-(propan-2-yl)pyrazolo[1,5-a][1,3,5]triazin-4-amine], the DC50 [1] was 2.36 nM and the IC50 (CDK12/CycK) was 1780 nM.

`CC1(C)CN(c2nc(NCc3nnc(-c4ccccc4)[nH]3)n3ncc(C4CC4)c3n2)CCO1` [Example 94, 8-cyclopropyl-2-(2,2-dimethylmorpholin-4-yl)-N-[(5-phenyl-4H-1,2,4-triazol-3-yl)methyl]pyrazolo[1,5-a][1,3,5]triazin-4-amine] was tested, and the IC50 [2] was 177 nM and the IC50 (CDK12/CycK) was 8790 nM.

With `Fc1ccccc1-c1cnn2c(NCc3nc4ccccc4[nH]3)nc(N3CCOCC3)nc12` [Example 95, N-[(1H-benzimidazol-2-yl)methyl]-8-(2-fluorophenyl)-2-(morpholin-4-yl)pyrazolo[1,5-a][1,3,5]triazin-4-amine] the IC50 [2] was 230 nM and the IC50 (CDK12/CycK) was over 20000 nM.
